The values that follow come from patent publication US20240383921A1, “AMIDE AND UREA-CONTAINING TRICYCLIC KRAS INHIBITORS” (Erasca, Inc., priority 2021, published 2024).

Structures are written as SMILES. Some results are limits rather than exact numbers.

In one assay the test system is Ras Initiative (RI) KRAS G12C cells. The assay is described as follows: phospho-ERK HTRF assay in RI KRAS G12C cells. The class given is cell-based. The settings on record: 11-point dose response starting at 2,500 nM, 4 hours or 16 hours treatment, read-out: pERK (RI). As for the experimental part:
KRAS G12C mutant lines, NCI H358 (ATCC, CRL-5807), and Ras Initiative (RI) KRAS G12C were cultured according to published protocols and maintained at 37° C. in 5% CO2. The phospho-ERK HTRF assay was executed following provider's protocol (CisBio #64AERPEH). NCI-H358 or RI KRAS G12C cells were plated at a density of 50,000 cells per well in a 96-well plate (Corning #3903) in respective medias (for NCI-H358, RPMI+10% FBS+1% Pen/Strep, and for RI KRAS G12C, DMEM+10% FBS+1% Pen/Strep+4 μg/mL Blasticidin) and maintained at 37° C. in 5% CO2. Cells were allowed to adhere overnight and treated the following day with a Tecan D300e Digital Dispenser (Tecan Group Ltd., Switzerland) using an 11-point dose response starting at 2,500 nM of exemplified compounds followed by sequential 1:3 dilutions for either 4 hours or 16 hours. Following compound treatment, the cells were washed once with ice-cold PBS. Cells were lysed by adding 50 μL of lysis buffer (1×) supplemented with 1× Pierce Halt Protease and Phosphatase inhibitor and incubated for 30 minutes at 4° C. with shaking. After lysis, 16 μL of cell lysate from the 96-well cell-culture plate was transferred to a 384-well plate (Perkin Elmer #6007290). The premixed antibody solution was prepared by mixing (vol/vol) advanced phospho-ERK1/2 d2 antibody and advanced phospho-ERK1/2 Eu Cryptate antibody. The premixed antibody solution (4 μL) was added to the detection plate containing cell lysate. The detection plate was incubated overnight at 4° C., the HTRF signal was read the next day by using either a Spectramax M5 or Spectramax i3 microplate reader (Molecular Devices, San Jose, CA, USA), and data was processed according to manufacturer's protocol.
Examples were evaluated according to the above p-ERK assay
In the case of `C=CC(=O)N1[C@H](C)CN(c2nc(=O)n3c4c(c(-c5ccc(F)c6[nH]c(=O)[nH]c56)c(C(F)(F)F)cc24)SC[C@@H](OC)C3)C[C@@H]1C` [Example 1, (3S)-8-((3S,5R)-4-acryloyl-3,5-dimethylpiperazin-1-yl)-11-(7-fluoro-2-oxo-2,3-dihydro-1H-benzo[d]imidazol-4-yl)-3-methoxy-10-(trifluoromethyl)-3,4-dihydro-2H,6H-[1,4]thiazepino[2,3,4-ij]quinazolin-6-one], the IC50 is above 2500 nM. Same read-out and setting: under `C=CC(=O)N1[C@H](C)CN(c2nc(=O)n3c4c(c(-c5ccc(F)c6[nH]c(=O)[nH]c56)c(C(F)(F)F)cc24)SC[C@@H]3COC)C[C@@H]1C` [Example 2, (3S,10S)-7-((3S,5R)-4-acryloyl-3,5-dimethylpiperazin-1-yl)-10-(7-fluoro-2-oxo-2,3-dihydro-1H-benzo[d]imidazol-4-yl)-3-(methoxymethyl)-9-(trifluoromethyl)-2,3-dihydro-5H-[1,4]thiazino[2,3,4-ij]quinazolin-5-one] stands above 2500 nM; under `C=CC(=O)N1CCN(c2nc(=O)n3c4c(c(-c5ccc(F)c6[nH]c(=O)[nH]c56)c(C(F)(F)F)cc24)SC[C@@H]3COC)CC1` [Example 3, (3S,10S)-7-(4-acryloylpiperazin-1-yl)-10-(7-fluoro-2-oxo-2,3-dihydro-1H-benzo[d]imidazol-4-yl)-3-(methoxymethyl)-9-(trifluoromethyl)-2,3-dihydro-5H-[1,4]thiazino[2,3,4-ij]quinazolin-5-one], above 2500 nM; under `C=CC(=O)N1[C@H](C)CN(c2nc(=O)n3c4c(c(-c5ccc(F)c6[nH]c(=O)[nH]c56)c(C(F)(F)F)cc24)SCC2(CCC2)C3)C[C@@H]1C` [Example 4, 8′-((3S,5R)-4-acryloyl-3,5-dimethylpiperazin-1-yl)-11′-(7-fluoro-2-oxo-2,3-dihydro-1H-benzo[d]imidazol-4-yl)-10′-(trifluoromethyl)-2′H, 4′H,6′H-spiro[cyclobutane-1,3′-[1,4]thiazepino[2,3,4-ij]quinazolin]-6′-one], above 2500 nM.

`C=CC(=O)N1CCN(c2nc(=O)n3c4c(c(-c5ccc(F)c6[nH]c(=O)[nH]c56)c(C(F)(F)F)cc24)SCC2(CCC2)C3)CC1` [Example 5, 8′-(4-acryloylpiperazin-1-yl)-11′-(7-fluoro-2-oxo-2,3-dihydro-1H-benzo[d]imidazol-4-yl)-10′-(trifluoromethyl)-2′H,4′H,6′H-spiro[cyclobutane-1,3′-[1,4]thiazepino[2,3,4-ij]quinazolin]-6′-one]: the IC50 is above 2500 nM. Still for that read-out and setting: under `C=CC(=O)N1[C@H](C)CN(c2nc(=O)n3c4c(c(-c5ccc(F)c6sc(=O)[nH]c56)c(C(F)(F)F)cc24)SC[C@@H]3COC)C[C@@H]1C` [Example 6, (3S,10S)-7-((3S,5R)-4-acryloyl-3,5-dimethylpiperazin-1-yl)-10-(7-fluoro-2-oxo-2,3-dihydrobenzo[d]thiazol-4-yl)-3-(methoxymethyl)-9-(trifluoromethyl)-2,3-dihydro-5H-[1,4]thiazino[2,3,4-ij]quinazolin-5-one] stands 68 nM; under `C=CC(=O)N1CCN(c2nc(=O)n3c4c(c(-c5ccc(F)c6sc(=O)[nH]c56)c(C(F)(F)F)cc24)SC[C@@H]3COC)CC1` [Example 7, (3S,10S)-7-(4-acryloylpiperazin-1-yl)-10-(7-fluoro-2-oxo-2,3-dihydrobenzo[d]thiazol-4-yl)-3-(methoxymethyl)-9-(trifluoromethyl)-2,3-dihydro-5H-[1,4]thiazino[2,3,4-ij]quinazolin-5-one], 18 nM. For the molecule `C=CC(=O)N1[C@H](C)CN(c2nc(=O)n3c4c(c(-c5ccc(F)c6sc(=O)[nH]c56)c(C(F)(F)F)cc24)SCC2(CCC2)C3)C[C@@H]1C` [Example 8, 8′-((3S,5R)-4-acryloyl-3,5-dimethylpiperazin-1-yl)-11′-(7-fluoro-2-oxo-2,3-dihydrobenzo[d]thiazol-4-yl)-10′-(trifluoromethyl)-2′H,4′H,6′H-spiro[cyclobutane-1,3′-[1,4]thiazepino[2,3,4-ij]quinazolin]-6′-one], the IC50 worked out at 171 nM. Same read-out and setting: for `C=CC(=O)N1CCN(c2nc(=O)n3c4c(c(-c5ccc(F)c6sc(=O)[nH]c56)c(C(F)(F)F)cc24)SCC2(CCC2)C3)CC1` [Example 9, 8′-(4-acryloylpiperazin-1-yl)-11′-(7-fluoro-2-oxo-2,3-dihydrobenzo[d]thiazol-4-yl)-10′-(trifluoromethyl)-2′H,4′H,6′H-spiro[cyclobutane-1,3′-[1,4]thiazepino[2,3,4-ij]quinazolin]-6′-one] the value was 222 nM; for `C=CC(=O)N1[C@H](C)CN(c2nc(=O)n3c4c(c(-c5ccc(F)c6sc(=O)n(C)c56)c(C(F)(F)F)cc24)SC[C@@H]3COC)C[C@@H]1C` [Example 10, (3S)-7-((3S,5R)-4-acryloyl-3,5-dimethylpiperazin-1-yl)-10-(7-fluoro-3-methyl-2-oxo-2,3-dihydrobenzo[d]thiazol-4-yl)-3-(methoxymethyl)-9-(trifluoromethyl)-2,3-dihydro-5H-[1,4]thiazino[2,3,4-ij]quinazolin-5-one], 46 nM.

The target of another assay is T1, KRAS 4B G12C protein (Homo sapiens, UniProt P01116, G12C).
T1 construct: made in house; host or cells: E. coli BL21
The assay is described as follows: KRAS G12C covalent adduct formation (CAF) assay, LC-MS. The following applies: 10 μM compound, 5 μM protein, 22° C. It is filed as binding. The procedure:
This Example provides a protocol for assessing covalent adduct formation (CAF) between the compounds of Formula (I) and KRAS.
In vitro covalent adduct formation assay: Covalent adduct formation (CAF) reactions between Cys12 of the KRAS 4B G12C protein and the compounds disclosed herein were measured in vitro using liquid chromatography-mass spectrometry (LC-MS).
Recombinant Human KRAS 4B protein containing the G12C mutation was used in compound screening experiments. This protein contained 188 amino acids in total, including an N-terminal 6-Histidine tag, followed by a Tobacco Etch Virus (TEV) tag, followed by residues 1-169 of the native KRAS 4B sequence. The exact mass of the protein is 21,310 Da as determined by mass spectrometry. […]
The recombinant protein is expressed in E. coli BL21 cells and purified using affinity chromatography via a Ni-NTA column. […] The intact mass of the protein samples was measured by LC-MS using a QExactive+ mass spectrometer (Thermo Scientific). An amount of 500 ng total protein was injected onto a C8 reverse phase column, eluted with a seven-minute gradient of 30%-90% acetonitrile/0.1% formic acid, and analyzed for intact mass by the mass spectrometer. Adducts identified were confirmed to be within 1 Dalton of the expected mass, and the relative ratios of free:adduct protein were used to quantify the percentage of protein bound by the compound. […]
For the molecule `C=CC(=O)N1[C@H](C)CN(c2nc(=O)n3c4c(c(-c5ccc(F)c6[nH]c(=O)[nH]c56)c(C(F)(F)F)cc24)SC[C@@H](OC)C3)C[C@@H]1C` [Example 1, (3S)-8-((3S,5R)-4-acryloyl-3,5-dimethylpiperazin-1-yl)-11-(7-fluoro-2-oxo-2,3-dihydro-1H-benzo[d]imidazol-4-yl)-3-methoxy-10-(trifluoromethyl)-3,4-dihydro-2H,6H-[1,4]thiazepino[2,3,4-ij]quinazolin-6-one], the “% CAF @ 60 min” value worked out at 75%.
